Values of other authors, collected in article PMC7494335 (Science Advances, 2020).

System: humans
Details: in vivo

NCCc1c[nH]cn1 [histamine]
pain if injected alone / addition to Dendrocnide extract: neither changed the nature of the pain caused by Dendrocnide extract nor caused substantial long-lasting pain if injected alone
